From ChEMBL document CHEMBL1133494, “Inhibitors of bacterial tyrosyl tRNA synthetase: synthesis of four stereoisomeric analogues of the natural product SB-219383” (Bioorg Med Chem Lett, 2000)

What was measured:
[1] = target: T1, Tyrosine--tRNA ligase, cytoplasmic (Homo sapiens) (UniProt P54577); test: Percentage inhibitory activity of compound against tyrosyl tRNA synthetase from mammalian cells was determined at 3 uM
T1 sequence (whole entry): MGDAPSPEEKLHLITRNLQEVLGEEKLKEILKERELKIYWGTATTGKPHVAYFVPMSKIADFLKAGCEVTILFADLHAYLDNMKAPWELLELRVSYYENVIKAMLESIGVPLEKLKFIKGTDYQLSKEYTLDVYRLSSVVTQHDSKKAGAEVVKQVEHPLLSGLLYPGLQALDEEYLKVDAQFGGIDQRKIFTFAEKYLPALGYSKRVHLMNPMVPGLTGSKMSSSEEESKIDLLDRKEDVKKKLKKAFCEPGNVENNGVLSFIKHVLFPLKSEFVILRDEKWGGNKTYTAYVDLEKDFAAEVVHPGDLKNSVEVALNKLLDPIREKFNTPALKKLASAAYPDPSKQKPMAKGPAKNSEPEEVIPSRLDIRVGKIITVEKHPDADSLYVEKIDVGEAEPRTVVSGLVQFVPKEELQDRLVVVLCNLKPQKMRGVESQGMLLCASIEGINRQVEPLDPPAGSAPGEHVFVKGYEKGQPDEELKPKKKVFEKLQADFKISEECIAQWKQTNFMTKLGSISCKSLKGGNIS

[2] = system: Tyrosyl-tRNA synthetase (Staphylococcus aureus); test: Inhibitory activity of compound against tyrosyl tRNA synthetase from Staphylococcus aureus was determined up to 3 uM; IA means Inactive

Row | SMILES | inhibition [1] [%] | IC50 [2]
1 | N[C@@H](Cc1ccc(O)cc1)C(=O)N[C@H](C(=O)O)[C@H]1[C@H](O)[C@@H](O)[C@@H](O)CN1O | 11 | 
2 | N[C@@H](Cc1ccc(O)cc1)C(=O)N[C@H](C(=O)O)[C@@H]1[C@@H](O)[C@H](O)[C@H](O)CN1O |  | Not Active
3 | N[C@@H](Cc1ccc(O)cc1)C(=O)N[C@@H](C(=O)O)[C@@H]1[C@@H](O)[C@H](O)[C@H](O)CN1O |  | Not Active
